The values below are quoted from earlier work in patent publication US20070196528A1, “Cosmetic composition based on caper flower bud extract” (GATTEFOSSE S.A.S., priority 2004, published 2007).

The subject of the series is oedemas in rats. The following applies: Pharmazie 43 (1988); cited from earlier work.
As to `CC(C)=CCC/C(C)=C/CC/C(C)=C/CC/C(C)=C/CC/C(C)=C\CC/C(C)=C\CC/C(C)=C\CC/C(C)=C\CC/C(C)=C\CC/C(C)=C\CC/C(C)=C\CC/C(C)=C\CC/C(C)=C\CO` [Cappaprenol-13], the Anti-inflammatory activity result is “providing this anti-inflammatory activity”.

With `CC(C)=CCC/C(C)=C/CC/C(C)=C/CC/C(C)=C/CC/C(C)=C/CC/C(C)=C/CC/C(C)=C/CC/C(C)=C/CC/C(C)=C/CC/C(C)=C/CC/C(C)=C/CC/C(C)=C/CC/C(C)=C/CC/C(C)=C/CO` [Cappaprenol-14], the Anti-inflammatory activity entry was “providing this anti-inflammatory activity”.

As for Cappaprenol-12, the Anti-inflammatory activity entry is “providing this anti-inflammatory activity”.
